ChEMBL document CHEMBL5729275 (2022)

assay: RSV-A Assay : Hep-2 cells, (originally derived from tumors grown in irradiated-cortisonised weanling rats that had been injected with epidermoid carcinoma tissue from a person's larynx, but later found to be indistinguishable from HeLa cells by PCR DNA analysis), were used for the culturing of genotype A, “Long” strain RSV. Flasks were inoculated with RSV and viral stocks were collected once cytopathic effect (CPE) was greater than 90%. Viral stocks in 25% sucrose media were snap frozen using liquid nitrogen to increase viral stability. Viral stock titers were quantified by tissue culture infectious dose 50% (TCID50) using 8,000 cells per well and 3-fold viral dilutions across a 96-well plate, cultured for 4 days. Viral stock titers were also quantified by a plaque forming unit assay, as described elsewhere.Following extensive parameter testing, the final assay is run as follows: Hep-2 cells are seeded into the inner 60 wells of a 96-well plate at 8,000 cells per well in a volume of 50 μL using Growth Media (DMEM without phenol red, 1% L-Glut, 1% Penn/Strep, 1% nonessential amino acids, 10% heat-inactivated FBS). 2-fold serial dilutions of control and test compounds are added to the wells in duplicate in a total volume of 25 μL. Viral stock is then added to the wells at a multiplicity of infection (MOI) of 0.1 in a volume of 25 μL, bringing the total volume of each well to 100 μL. The MOI is calculated using the PFU/mL, or TCID50 if unavailable. Each 96-well plate has a control column of 6 wells with cells and virus but no compound (negative control, max CPE), a column with cells but no compound or virus (positive control, minimum CPE), and a column with no cells or virus or compound (background plate/reagent control). The control wells with cells but no virus are given an additional […], of growth media containing an equal quantity of sucrose as those wells receiving the viral stock in order to keep consistent in media and volume conditions. The outer wells of the plate are filled with 125 μL of moat media (DMEM, 1% Penn/Strep) to act as a thermal and evaporative moat around the test wells. Following a 5-day incubation period, the plates are read using ATPlite (50 uL added per well), which quantifies the amount of ATP (a measure of cell health) present in each well. Assay plates are read using the Envision luminometer.

SMILES	EC50 [nM]
C[C@](O)(CNC(=O)c1ccc(OC2CC2)c(OC2CC2)c1)c1cc2c(c(-c3ccc(F)c(F)c3)n1)OC[C@@]2(N)C(F)(F)F	< 200
COc1cnc(C(=O)NC[C@](O)(c2cc3c(c(-c4ccc(F)cc4)n2)OC[C@@]3(N)C(F)(F)F)C(F)(F)F)cc1OC	> 200
COc1cc(C(=O)NC[C@](O)(c2cc3c(c(-c4ccc(F)cc4)n2)OC[C@@]3(N)C(F)(F)F)C(F)(F)F)ccc1OC1CC1	< 200
COc1cc(C(=O)NC[C@](O)(c2cc3c(c(-c4ccc(F)cc4)n2)OC[C@@]3(N)C(F)(F)F)C(F)(F)F)cc(F)c1OC1CC1	> 200
COc1cc(C(=O)NC[C@](O)(c2cc3c(c(-c4ccc(F)cc4)n2)OC[C@@]3(N)C(F)(F)F)C2CC2)cc2cn(C)nc12	< 200
COc1cc(F)c(C(=O)NC[C@](O)(c2cc3c(c(-c4ccc(F)cc4)n2)OC[C@@]3(N)C(F)(F)F)C(F)(F)F)cc1OC	> 200
COc1cc(C(=O)NC[C@](O)(c2cc3c(c(-c4ccc(F)c(Cl)c4)n2)OC[C@@]3(N)C(F)(F)F)C2CC2)ccc1OC1CC1	< 200
COC[C@](O)(CNC(=O)c1ccc(OC2CC2)c(OC)c1)c1cc2c(c(-c3ccc(F)cc3)n1)OC[C@@]2(N)C(F)(F)F	< 200
COC(=O)N[C@@]1(C(F)(F)F)COc2c1cc([C@@](C)(O)CNC(=O)c1ccc(OC3CC3)c(OC)c1)nc2-c1ccc(F)cc1	< 200
COc1cc(C(=O)NC[C@](O)(c2cc3c(c(-c4ccc(F)cc4)n2)OC[C@@]3(N)C(F)(F)F)C(F)(F)F)cc2cccnc12	< 200
COc1cc(C(=O)NC[C@](O)(c2cc3c(c(-c4ccc(F)cc4)n2)OC[C@@]3(NC(=O)COC(C)=O)C(F)(F)F)C(F)(F)F)ccc1OC1CC1	< 200
COc1cc(C(=O)NC[C@](O)(c2cc3c(c(-c4ccc(F)cc4)n2)OC[C@@]3(NC(=O)CO)C(F)(F)F)C(F)(F)F)ccc1OC1CC1	< 200
COc1cc(C(=O)NC[C@](O)(c2cc3c(c(-c4ccc(F)cc4)n2)OC[C@@]3(N)C(F)(F)F)C2COC2)ccc1OC1CC1	> 200
COc1cc(C(=O)NC[C@@](O)(CO)c2cc3c(c(-c4ccc(F)cc4)n2)OC[C@@]3(N)C(F)(F)F)ccc1OC1CC1	< 200
N[C@@]1(C(F)(F)F)COc2c1cc([C@@](O)(CNC(=O)c1cc(OC3CC3)c3nn(C4CC4)cc3c1)C1CC1)nc2-c1ccc(F)c(Cl)c1	< 200
COc1cc(C(=O)NC[C@](O)(c2cc3c(c(-c4ccc(F)cc4)n2)OC[C@@]3(N)C(F)(F)F)C2CC2)ccc1OC1CC1	< 200
COc1cc(C(=O)NC[C@](O)(c2cc3c(c(-c4ccc(F)cc4)n2)OC[C@@]3(N)C(F)(F)F)C(F)(F)F)ccc1OCCO	> 200
COc1cc(C(=O)NC[C@](O)(c2cc3c(c(-c4ccc(F)cc4)n2)OC[C@@]3(N)C(F)(F)F)C(F)(F)F)nc2ccccc12	> 200
COc1cc(C(=O)NC[C@](C)(O)c2cc3c(c(-c4ccc(F)cc4)n2)OC[C@@]3(NS(=O)(=O)C(C)(C)C)C(F)(F)F)cc2cccnc12	> 200
C[C@](O)(CNC(=O)c1ccc(OC2CC2)c(OC2CC2)c1)c1cc2c(c(-c3ccc(F)cc3)n1)OC[C@@]2(N)C(F)(F)F	< 200
COc1cc(C(=O)NC[C@@](O)(c2cc3c(c(-c4ccc(F)cc4)n2)OC[C@]3(N)C(F)(F)F)C(F)(F)F)ccc1OCCO	> 200

SMILES	EC50 [nM]
N[C@@]1(C(F)(F)F)COc2c1cc([C@@](O)(CNC(=O)c1ccc(OC3CC3)c(OC3CC3)c1)C1CC1)nc2-c1ccc(F)c(F)c1	< 200
COc1cc(C(=O)NC[C@](O)(c2cc3c(c(-c4ccc(F)cc4)n2)OC[C@@]3(N)C(F)(F)F)C2CC2)cc2cccnc12	< 200
COc1cc(C(=O)NC[C@](O)(c2cc3c(c(-c4ccc(F)cc4)n2)OC[C@]3(N)C(F)(F)F)C(F)(F)F)ccc1OCCO	> 200
COc1cc(C(=O)NC[C@](O)(c2cc3c(c(-c4ccc(F)cc4)n2)OC[C@@]3(N)C(F)(F)F)C(F)(F)F)ccc1C(F)(F)F	> 200
C[C@](O)(CNC(=O)c1cc(OC2CC2)c2ncccc2c1)c1cc2c(c(-c3ccc(F)c(Cl)c3)n1)OC[C@@]2(N)C(F)(F)F	> 200
CC(C)(C)S(=O)(=O)N[C@@]1(C(F)(F)F)COc2c1cc([C@@](C)(O)CNC(=O)c1cc(OC3CC3)c3ncccc3c1)nc2-c1ccc(F)cc1	> 200
N[C@@]1(C(F)(F)F)COc2c1cc([C@@](O)(CNC(=O)c1cc(OC3CC3)c3nn(C4CC4)cc3c1)C1CC1)nc2-c1ccc(F)cc1	< 200
COc1ccc(C(=O)NC[C@](O)(c2cc3c(c(-c4ccc(F)cc4)n2)OC[C@@]3(N)C(F)(F)F)C(F)(F)F)cc1OC	> 200
N[C@@]1(C(F)(F)F)COc2c1cc([C@@](O)(CNC(=O)c1cc(OC3CC3)c3ncccc3c1)C1CC1)nc2-c1ccc(F)c(Cl)c1	< 200
COc1cccc2cc(C(=O)NC[C@](O)(c3cc4c(c(-c5ccc(F)cc5)n3)OC[C@@]4(N)C(F)(F)F)C(F)(F)F)cnc12	> 200
COc1cc(C(=O)NC[C@](C)(O)c2cc3c(c(-c4ccc(F)cc4)n2)OC[C@@]3(N)C(F)(F)F)cc2cccnc12	< 200
COc1cc(C(=O)NC[C@](O)(c2cc3c(c(-c4ccc(F)cc4)n2)OC[C@]3(N)C(F)(F)F)C(F)(F)F)ccc1OC1CC1	< 200
COc1cc(C(=O)NCC(C)c2cc3c(c(-c4ccc(F)c(F)c4)n2)OC[C@@]3(N)C(F)(F)F)ccc1OC1CC1 (stereo partly specified)	> 200
COC(=O)N[C@@]1(C(F)(F)F)COc2c1cc([C@@](O)(CNC(=O)c1ccc(OC3CC3)c(OC)c1)C(F)(F)F)nc2-c1ccc(F)cc1	> 200
N[C@@]1(C(F)(F)F)COc2c1cc([C@@](O)(CNC(=O)c1ccc(OC3CC3)c(OC3CC3)c1)C1CC1)nc2-c1ccc(F)c(Cl)c1	< 200
N[C@@]1(C(F)(F)F)COc2c1cc([C@](O)(CO)CNC(=O)c1cc(OC3CC3)c3ncccc3c1)nc2-c1ccc(F)cc1	> 200
COc1cc(C(=O)NC[C@](C)(O)c2cc3c(c(-c4ccc(F)cc4)n2)OC[C@@]3(NC(=N)NC#N)C(F)(F)F)ccc1OC1CC1	< 200
COc1cc(C(=O)NC[C@](O)(c2cc3c(c(-c4ccc(F)cc4)n2)OC[C@@]3(N)C(F)(F)F)C2CC2)cc2sc(N)nc12	< 200
N[C@@]1(C(F)(F)F)COc2c1cc([C@@](O)(CNC(=O)c1ccc(OC3CC3)c(OC3CC3)c1)C1CC1)nc2-c1ccc(F)cc1	< 200
COc1cc(C(=O)NC[C@](O)(c2cc3c(c(-c4ccc(F)cc4)n2)OC[C@@]3(N)C(F)(F)F)C(F)(F)F)ccc1OCC(C)C	> 200
COC[C@](O)(CNC(=O)c1cc(OC2CC2)c2ncccc2c1)c1cc2c(c(-c3ccc(F)cc3)n1)OC[C@@]2(N)C(F)(F)F	< 200

SMILES	EC50 [nM]
COc1cc(C(=O)NC[C@@](O)(c2cc3c(c(-c4ccc(F)cc4)n2)OC[C@@]3(N)C(F)(F)F)C(F)(F)F)ccc1OC1CC1	> 200
N[C@@]1(C(F)(F)F)COc2c1cc([C@@](O)(CNC(=O)c1cc(OC3CC3)c3ncccc3c1)C1CC1)nc2-c1ccc(F)cc1	< 200
COc1cc(C(=O)NC[C@](O)(c2cc3c(c(-c4ccc(F)cc4)n2)OC[C@@]3(N)C(F)(F)F)C(C)(C)C)ccc1OC1CC1	> 200
Nc1nc2ccc(C(=O)NC[C@](O)(c3cc4c(c(-c5ccc(F)cc5)n3)OC[C@@]4(N)C(F)(F)F)C3CC3)cc2s1	< 200
COc1cc(C(=O)NC[C@](O)(c2cc3c(c(-c4ccc(F)c(F)c4)n2)OC[C@@]3(N)C(F)(F)F)C2CC2)ccc1OC1CC1	< 200
COc1ccc2nc(C(=O)NC[C@](O)(c3cc4c(c(-c5ccc(F)cc5)n3)OC[C@@]4(N)C(F)(F)F)C(F)(F)F)cc(OC)c2c1	> 200
COc1cc(C(=O)NC[C@](C)(O)c2cc3c(c(-c4ccc(F)cc4)n2)OC[C@@]3(N)C(F)(F)F)ccc1OC1CC1	< 200
COc1cc(C(=O)NC[C@](O)(c2cc3c(c(-c4ccc(F)cc4)n2)OC[C@]3(N)C(F)(F)F)C(F)(F)F)cc2cccnc12	< 200
COc1cc(C(=O)NC[C@@](O)(CF)c2cc3c(c(-c4ccc(F)cc4)n2)OC[C@@]3(N)C(F)(F)F)ccc1OC1CC1	< 200
Nc1nc2c(F)cc(C(=O)NC[C@](O)(c3cc4c(c(-c5ccc(F)cc5)n3)OC[C@@]4(N)C(F)(F)F)C3CC3)cc2s1	< 200
COc1cc(C(=O)NC[C@](C)(O)c2cc3c(c(-c4ccc(F)c(Cl)c4)n2)OC[C@@]3(N)C(F)(F)F)ccc1OC1CC1	< 200
COc1cc(C(=O)NC[C@](C)(O)c2cc3c(c(-c4ccc(F)c(F)c4)n2)OC[C@@]3(N)C(F)(F)F)ccc1OC1CC1	< 200
C[C@](O)(CNC(=O)c1ccc(OC2CC2)c(-c2cccnc2)c1)c1cc2c(c(-c3ccc(F)cc3)n1)OC[C@@]2(N)C(F)(F)F	< 200
COCCOc1ccc(C(=O)NC[C@](O)(c2cc3c(c(-c4ccc(F)cc4)n2)OC[C@@]3(N)C(F)(F)F)C(F)(F)F)cc1OC	> 200
COc1cc(C(=O)NC[C@H](O)c2cc3c(c(-c4ccc(F)cc4)n2)OC[C@@]3(N)C(F)(F)F)ccc1OC1CC1	> 200
C[C@](O)(CNC(=O)c1cc(OC2CC2)c2ncccc2c1)c1cc2c(c(-c3ccc(F)cc3)n1)OC[C@@]2(N)C(F)(F)F	< 200
N[C@@]1(C(F)(F)F)COc2c1cc([C@@](O)(CNC(=O)c1cc(OC3CC3)c3ncccc3c1)C1COC1)nc2-c1ccc(F)cc1	> 200
COc1cc(C(=O)NC[C@@](O)(c2cc3c(c(-c4ccc(F)cc4)n2)OC[C@]3(N)C(F)(F)F)C(F)(F)F)ccc1OC1CC1	> 200
C[C@](O)(CNC(=O)c1ccc(OC2CC2)c(OC2CC2)c1)c1cc2c(c(-c3ccc(F)c(Cl)c3)n1)OC[C@@]2(N)C(F)(F)F	< 200
